The text below walks through data of PMC10879502, “Linking ATP and allosteric sites to achieve superadditive binding with bivalent EGFR kinase inhibitors” (Communications Chemistry, 2024).

Assay [1] has as its system EGFR phosphorylation (pY1068) in H1975 cells. Put plainly: Western blot. The class given is cell-based, human. Here is the method: H1975, H3255, H3255GR and HCC827 lung adenocarcinoma cells (obtained from Dr. Pasi Jänne in Dana-Farber Cancer Institute, 2022) were cultured in RPMI 1640 media (Corning, 1004-CV) supplemented with 10% FBS (Tissue Culture Biologicals, 35-010-CV) and 1% penicillin-streptomycin (P/S, Corning, 30-002-CI). All cell lines were tested negative for Mycoplasma using Myco-Sniff-Rapid™ Mycoplasma Luciferase Detection Kit Plus PCR Primer Set (MP biomedicals, 0930504-CF) and were passaged and/or used for no longer than 4 weeks for all experiments H1975 and HCC-827 cells were seeded in 6-well plates with 400,000 cells per well and incubated overnight. H3255 and H3255GR cells were seeded in 12-well plates with 200,000 cells per well and were grown to confluency after 48 h. Culture medium was removed, cells washed with PBS, and lysed with lysis buffer containing 5 M NaCl, 1 M TRIS pH 8.0, 10% SDS, 10% Triton X-100 and a tablet of protease and phosphatase inhibitor. Protein lysate concentration was analyzed using Pierce BCA kit (ThermoFisher, 23225). Protein samples (10 µg) were resolved on hand-cast Criterion Tris-HCl protein gels. Primary antibodies used; phospho-EGFR (Tyr1068; #2234, 1:1,000), EGFR (#4267; 1:1,000), phospho-AKT (Ser473; #4060, 1:1,000), AKT (#9272, 1:1,000), phospho-ERK1/2 (Thr202/Tyr204; #4370, 1:1,000), and ERK1/2 (#4695, 1:1,000) antibodies; were purchased from Cell Signaling Technology. Secondary Goat anti-rabbit IgG starbright blue 700 (Biorad, 64484700) and Anti-tubulin hFAB Rhodamine Tubulin (Bio-Rad, 64512248). Western blots were visualized with the ChemiDoc MP imager (Bio-Rad) utilizing the Image Lab Touch Software (version 2.4.0.03). All Western blot images are representatives of at least 3 independent replicate experiments.

Assay [2] relates to Ba/F3 cells, wildtype EGFR. Put plainly: Ba/F3 resazurin antiproliferative assay. It is filed as cell-based. Particulars: Mus musculus, BaF3; Ba/F3, 72 h; read-out: EGFR EC50, wt. As for the experimental part: (§1) H1975 and HCC827 cells were obtained from the lab of Dr. Pasi Jänne (Dana-Farber Cancer Institute, 2022) cultured at 37 °C in RPMI 1640 media (Corning, 1004-CV) supplemented with 10% fetal bovine serum (Tissue Culture Biologicals, 35-010-CV) and 1% penicillin and streptomycin (P/S, Corning, 30-002-CI) and seeded overnight in a 96-well plate at a density of 60000 cells/mL. Cells were dosed with inhibitors to a final DMSO 0.5% in triplicate for 37 °C for 72 h. Cellular inhibition of growth was assessed by MTT viability assay according to the manufactures protocol (OZ Biosciences). Parental Ba/F3 cells was a generous gift from the laboratory of Dr. David Weinstock (in 2014), Dr. Pasi Jänne (2020) both of the Dana-Farber Cancer Institute and was used to generate the wildtype EGFR, L858R, and L858R/T790M EGFR mutant Ba/F3 cells[52],[67]. Ba/F3 cells were all cultured in RPMI1640 media with 10% fetal bovine serum and 1% penicillin and streptomycin. The Ba/F3 cell lines were tested negative for Mycoplasma using Mycoplasma Plus PCR Primer Set (Agilent) and were passaged and/or used for no longer than 4 weeks for all experiments. Assay reagents were purchased from MilliporeSigma (Cat# R7017-5G). Ba/F3 cells were plated and treated with increasing concentrations of inhibitors in triplicate for 72 h. Compounds were dispensed using the Tecan D300e Digital Dispenser. […] All experiments were repeated at least 3 times and values were reported as an average with standard deviation.
On the technique in general: Resazurin is reduced to fluorescent resorufin, in cell work by metabolically active cells.

Assay [3] concerns Ba/F3 cells, L858R EGFR. Put plainly: Ba/F3 resazurin antiproliferative assay. The class given is cell-based. Particulars: Mus musculus, BaF3, 72 h, Ba/F3, 72 h; read-out: EGFR EC50, LR. As for the experimental part:
as §1

Assay [4] has as its system Ba/F3 cells, LR/TM/CS EGFR. Put plainly: Ba/F3 resazurin antiproliferative assay. It is filed as cell-based. Conditions: Mus musculus, BaF3; Ba/F3, 72 h. As for the experimental part: as §1
The subject of assay [5] is Ba/F3 cells, L858R/T790M EGFR. Put plainly: Ba/F3 resazurin antiproliferative assay. The class given is cell-based. Conditions: Mus musculus, BaF3; Ba/F3, 72 h; read-out: EGFR EC50, LR/TM. As for the experimental part: as §1
The target in assay [6] is T1, EGFR L858R/T790M/C797S (LRTMCS) kinase domain (Homo sapiens, UniProt P00533, C797S/L858R/T790M).
T1 construct: The EGFR kinase domain (residues 696–1022) was cloned into pTriEx; 6xHis (N, cleaved yes); GST (N, cleaved yes); made in house; host or cells: SF9 insect cells, baculovirus
Put plainly: HTRF KinEASE-TK kinase activity assay. It is filed as biochemical.

Assay [7] addresses NEK9 (Homo sapiens, UniProt Q8TD19). Put plainly: KINOMEscan. The class given is binding. Particulars: 1 μM.
Assay [8] deals with FGFR4 (Homo sapiens, UniProt P22455). Put plainly: KINOMEscan. The class given is binding. Conditions: 1 μM.
Assay [9] addresses T2, CAMKK1 (Homo sapiens, UniProt Q8N5S9).
T2 construct: purchased Eurofins DiscoverX Corporation (KINOMEscan)
Put plainly: KINOMEscan. It is filed as binding. Conditions: 1 μM.

The target in assay [10] is T3, MST1 (Homo sapiens, UniProt Q13043).
T3 construct: purchased Eurofins DiscoverX Corporation
T3 sequence (Q13043 whole entry): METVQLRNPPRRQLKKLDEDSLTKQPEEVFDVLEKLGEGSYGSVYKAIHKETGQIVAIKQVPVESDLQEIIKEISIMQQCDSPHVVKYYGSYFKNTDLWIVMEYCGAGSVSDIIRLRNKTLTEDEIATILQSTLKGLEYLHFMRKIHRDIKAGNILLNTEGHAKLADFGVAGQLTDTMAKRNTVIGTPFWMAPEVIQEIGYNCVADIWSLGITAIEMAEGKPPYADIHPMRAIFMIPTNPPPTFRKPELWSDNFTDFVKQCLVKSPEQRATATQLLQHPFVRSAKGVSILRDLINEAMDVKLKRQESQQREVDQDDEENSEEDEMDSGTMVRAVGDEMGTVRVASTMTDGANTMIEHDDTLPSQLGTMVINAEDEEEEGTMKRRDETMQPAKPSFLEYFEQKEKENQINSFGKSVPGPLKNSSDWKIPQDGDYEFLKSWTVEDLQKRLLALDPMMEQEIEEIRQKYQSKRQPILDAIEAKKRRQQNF
Put plainly: KINOMEscan. It is filed as binding. Conditions: 1 μM.

Assay [11] addresses T4, MEK2 (Homo sapiens, UniProt P36507).
T4 construct: purchased Eurofins DiscoverX Corporation
Put plainly: KINOMEscan. The class given is binding. Conditions: 1 μM.

In assay [12] the target is RSK4(Kin.Dom.1-N-terminal) (Homo sapiens, UniProt Q9UK32). Put plainly: KINOMEscan. Conditions: 1 μM. It is filed as binding.
RSK4(Kin.Dom.1-N-terminal), sequence (Q9UK32 73-330 limits assumed): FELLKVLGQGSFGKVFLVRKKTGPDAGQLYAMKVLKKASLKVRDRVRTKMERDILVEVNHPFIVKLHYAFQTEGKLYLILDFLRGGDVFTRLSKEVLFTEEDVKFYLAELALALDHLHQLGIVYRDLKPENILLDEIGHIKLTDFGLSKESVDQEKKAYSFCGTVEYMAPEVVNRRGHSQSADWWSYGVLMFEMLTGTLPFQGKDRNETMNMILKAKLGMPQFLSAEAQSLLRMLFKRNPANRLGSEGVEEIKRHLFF
The target in assay [13] is T5, IGF1R (Homo sapiens, UniProt P08069).
T5 construct: purchased Eurofins DiscoverX (KINOMEscan)
T5 sequence (P08069 31-1367): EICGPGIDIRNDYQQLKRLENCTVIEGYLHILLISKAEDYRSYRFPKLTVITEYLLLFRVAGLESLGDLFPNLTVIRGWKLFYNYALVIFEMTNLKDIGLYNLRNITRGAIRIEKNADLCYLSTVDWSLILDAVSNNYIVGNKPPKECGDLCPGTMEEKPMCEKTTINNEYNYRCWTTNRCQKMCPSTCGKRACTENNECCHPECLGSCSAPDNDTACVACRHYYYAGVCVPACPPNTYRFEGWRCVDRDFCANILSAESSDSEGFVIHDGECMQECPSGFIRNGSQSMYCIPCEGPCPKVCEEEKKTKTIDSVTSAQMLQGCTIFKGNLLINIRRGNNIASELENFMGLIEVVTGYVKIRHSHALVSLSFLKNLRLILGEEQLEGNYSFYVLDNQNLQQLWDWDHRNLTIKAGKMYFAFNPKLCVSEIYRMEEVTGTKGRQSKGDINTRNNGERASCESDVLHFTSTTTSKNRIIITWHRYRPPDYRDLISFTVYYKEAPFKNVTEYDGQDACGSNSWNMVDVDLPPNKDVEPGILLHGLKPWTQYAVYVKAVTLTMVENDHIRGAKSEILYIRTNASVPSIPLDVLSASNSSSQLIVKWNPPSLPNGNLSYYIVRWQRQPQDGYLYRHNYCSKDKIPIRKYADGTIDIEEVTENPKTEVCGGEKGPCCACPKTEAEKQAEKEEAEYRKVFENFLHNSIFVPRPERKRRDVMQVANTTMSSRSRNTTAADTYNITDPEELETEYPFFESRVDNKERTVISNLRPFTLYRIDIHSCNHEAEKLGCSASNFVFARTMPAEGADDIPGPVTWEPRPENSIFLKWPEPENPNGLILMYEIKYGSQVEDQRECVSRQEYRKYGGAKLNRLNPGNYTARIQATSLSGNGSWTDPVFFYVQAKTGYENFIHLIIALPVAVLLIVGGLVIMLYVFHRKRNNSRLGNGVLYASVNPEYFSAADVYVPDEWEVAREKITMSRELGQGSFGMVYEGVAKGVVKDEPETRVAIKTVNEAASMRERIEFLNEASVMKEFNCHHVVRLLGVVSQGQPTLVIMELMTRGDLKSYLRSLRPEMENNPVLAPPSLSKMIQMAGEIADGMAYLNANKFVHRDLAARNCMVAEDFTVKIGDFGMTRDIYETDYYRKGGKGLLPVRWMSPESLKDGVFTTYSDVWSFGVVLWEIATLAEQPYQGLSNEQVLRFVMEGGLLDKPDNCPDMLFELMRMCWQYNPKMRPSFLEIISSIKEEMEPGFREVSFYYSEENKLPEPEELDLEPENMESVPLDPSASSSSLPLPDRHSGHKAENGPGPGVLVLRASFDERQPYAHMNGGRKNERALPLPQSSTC
Put plainly: KINOMEscan. The class given is binding. Particulars: 1 μM.

The target of assay [14] is T6, CAMK1 (Homo sapiens, UniProt Q14012).
T6 construct: purchased Eurofins DiscoverX Corporation (KINOMEscan)
T6 sequence (Q14012 whole entry): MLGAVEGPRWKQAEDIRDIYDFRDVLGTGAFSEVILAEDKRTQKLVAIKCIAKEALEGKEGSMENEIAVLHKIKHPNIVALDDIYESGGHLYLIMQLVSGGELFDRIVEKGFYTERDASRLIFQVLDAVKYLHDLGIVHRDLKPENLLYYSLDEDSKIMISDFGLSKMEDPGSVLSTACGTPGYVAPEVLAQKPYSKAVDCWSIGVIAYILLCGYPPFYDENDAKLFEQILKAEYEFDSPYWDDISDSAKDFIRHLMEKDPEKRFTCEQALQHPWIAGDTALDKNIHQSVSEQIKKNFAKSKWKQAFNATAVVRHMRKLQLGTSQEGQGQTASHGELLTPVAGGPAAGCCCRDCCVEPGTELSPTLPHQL
Put plainly: KINOMEscan. It is filed as binding. Conditions: 1 μM.

In assay [15] the target is ARK5 (Homo sapiens, UniProt O60285). Put plainly: KINOMEscan. It is filed as binding. Conditions: 1 μM.
ARK5, sequence (O60285 whole entry): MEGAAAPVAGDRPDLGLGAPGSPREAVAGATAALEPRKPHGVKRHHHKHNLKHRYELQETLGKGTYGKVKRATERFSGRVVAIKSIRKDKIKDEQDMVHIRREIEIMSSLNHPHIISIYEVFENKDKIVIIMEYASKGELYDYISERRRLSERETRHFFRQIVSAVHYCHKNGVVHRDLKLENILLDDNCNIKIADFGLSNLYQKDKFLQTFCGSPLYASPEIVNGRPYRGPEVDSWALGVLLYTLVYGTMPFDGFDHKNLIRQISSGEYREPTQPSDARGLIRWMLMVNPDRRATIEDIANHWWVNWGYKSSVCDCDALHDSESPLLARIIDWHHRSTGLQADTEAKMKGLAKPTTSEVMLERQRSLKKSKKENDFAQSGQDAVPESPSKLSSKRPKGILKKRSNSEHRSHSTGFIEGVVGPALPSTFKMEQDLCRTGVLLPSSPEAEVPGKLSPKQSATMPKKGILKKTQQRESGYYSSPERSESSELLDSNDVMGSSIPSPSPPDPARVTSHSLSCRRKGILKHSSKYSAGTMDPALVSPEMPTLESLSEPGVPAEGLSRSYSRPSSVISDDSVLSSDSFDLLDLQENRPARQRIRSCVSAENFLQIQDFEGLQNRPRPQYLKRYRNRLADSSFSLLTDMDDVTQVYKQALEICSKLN
Assay [16] concerns the target T7, ICK (Homo sapiens, UniProt Q9UPZ9).
T7 construct: purchased Eurofins DiscoverX (KINOMEscan)
Put plainly: KINOMEscan. The class given is binding. Particulars: 1 μM.

In assay [17] the target is RAF1 (Homo sapiens, UniProt P04049). Put plainly: KINOMEscan. It is filed as binding. Particulars: 1 μM.
Setting [18] is: enzyme 0.02 nM, ATP 100 µM, read-out: Biochemical EGFR IC50, LRTMCS.

Structures are written as SMILES. “And” between values parts separate entries of the source, which are not always exact repeats. Equal values may be shown once. Read-outs that look alike come from different tables or passages of the source. Bounds are passed on as bounds.

NEK9, sequence (Q8TD19 whole entry): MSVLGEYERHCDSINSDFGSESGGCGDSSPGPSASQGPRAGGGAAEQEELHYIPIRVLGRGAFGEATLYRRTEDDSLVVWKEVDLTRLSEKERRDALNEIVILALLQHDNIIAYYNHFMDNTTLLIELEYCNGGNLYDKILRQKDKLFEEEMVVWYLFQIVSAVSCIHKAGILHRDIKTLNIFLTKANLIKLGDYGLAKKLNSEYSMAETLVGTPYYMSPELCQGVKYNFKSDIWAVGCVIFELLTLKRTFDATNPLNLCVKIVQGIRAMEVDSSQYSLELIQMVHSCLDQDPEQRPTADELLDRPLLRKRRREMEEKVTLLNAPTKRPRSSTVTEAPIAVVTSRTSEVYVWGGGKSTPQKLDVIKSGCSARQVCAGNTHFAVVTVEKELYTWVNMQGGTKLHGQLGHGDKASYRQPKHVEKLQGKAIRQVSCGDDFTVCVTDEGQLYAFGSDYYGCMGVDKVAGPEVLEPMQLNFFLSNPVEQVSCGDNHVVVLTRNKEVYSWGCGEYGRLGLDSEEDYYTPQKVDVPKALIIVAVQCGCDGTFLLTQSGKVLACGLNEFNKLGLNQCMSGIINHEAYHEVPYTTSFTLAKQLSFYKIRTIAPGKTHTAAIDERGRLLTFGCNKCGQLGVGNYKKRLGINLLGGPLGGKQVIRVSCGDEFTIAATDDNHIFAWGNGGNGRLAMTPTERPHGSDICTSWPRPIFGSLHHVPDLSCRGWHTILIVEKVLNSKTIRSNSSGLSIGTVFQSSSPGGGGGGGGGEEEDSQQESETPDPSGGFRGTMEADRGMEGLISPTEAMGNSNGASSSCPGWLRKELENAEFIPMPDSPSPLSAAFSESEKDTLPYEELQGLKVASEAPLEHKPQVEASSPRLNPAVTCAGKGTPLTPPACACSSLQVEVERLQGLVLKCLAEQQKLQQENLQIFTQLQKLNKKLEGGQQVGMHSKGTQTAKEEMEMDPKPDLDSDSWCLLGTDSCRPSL
T7 sequence (Q9UPZ9 whole entry): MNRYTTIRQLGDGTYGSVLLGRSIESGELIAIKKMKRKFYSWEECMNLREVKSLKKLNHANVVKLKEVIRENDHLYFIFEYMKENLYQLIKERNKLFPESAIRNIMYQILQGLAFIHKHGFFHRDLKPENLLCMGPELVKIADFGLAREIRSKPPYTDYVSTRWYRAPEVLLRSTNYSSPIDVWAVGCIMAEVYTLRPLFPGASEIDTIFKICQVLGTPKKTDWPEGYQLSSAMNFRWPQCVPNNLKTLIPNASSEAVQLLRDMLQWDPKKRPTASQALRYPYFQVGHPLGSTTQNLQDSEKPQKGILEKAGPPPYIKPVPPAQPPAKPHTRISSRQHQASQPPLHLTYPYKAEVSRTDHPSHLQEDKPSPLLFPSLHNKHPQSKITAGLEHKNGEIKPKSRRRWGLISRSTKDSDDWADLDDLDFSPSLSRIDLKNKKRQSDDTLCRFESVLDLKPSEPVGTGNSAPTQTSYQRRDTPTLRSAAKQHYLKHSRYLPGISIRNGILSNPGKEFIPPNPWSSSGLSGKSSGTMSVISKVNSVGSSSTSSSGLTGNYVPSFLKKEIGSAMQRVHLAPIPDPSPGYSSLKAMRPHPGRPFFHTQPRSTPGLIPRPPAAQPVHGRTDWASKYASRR

The term IC50 denotes the point on the concentration scale where inhibition reaches its midpoint. `CSc1nc(-c2cccc(NC(=O)c3cccc4c3NC(=O)c3ccccc3N4)c2)c(-c2ccnc(NC(C)=O)c2)[nH]1` [Compound 2]: the “suppression of EGFR phosphorylation” value in [1] (H1975, 6 h) was “also effective in H1975 cells, however to a lesser extent than 4”. In addition, the EC50 was 5100 nM in [2], 5300 nM in [3], 6500 nM in assay [4] and more than 10000 nM in assay [5]. Further, the activity in assay [6] (LRTMCS, [Inhibitor] 1.3e-5 nM, read-out: percent inhibition) was 93.5% and 92.2% and 100%; in assay [6] (LRTMCS, [Inhibitor] 3.18e-5 nM, read-out: percent inhibition), 90.3% (2×) and 95.9%; in assay [6] (LRTMCS, [Inhibitor] 7.78e-5 nM, read-out: percent inhibition), 71% and 67.2% and 70.8%. In assay [6] (LRTMCS, [Inhibitor] 0.000190441 nM, read-out: percent inhibition), the activity at 190.4 fM stood at 39.1%. In assay [6] (LRTMCS, [Inhibitor] 0.000465979 nM, read-out: percent inhibition), the activity at 466 fM was found to be 22.7%. In addition, the activity at 1.14 pM in [6] (LRTMCS, [Inhibitor] 0.00114018 nM, read-out: percent inhibition) turned out to be 13.5%. Also, in [6] (LRTMCS, [Inhibitor] 0.00278983 nM, read-out: percent inhibition), the activity at 2.79 pM is 8.55%. Further, in assay [6] (LRTMCS, [Inhibitor] 0.00682626 nM, read-out: percent inhibition), the activity at 6.826 pM turned out to be 4.28%. The activity at 16.7 pM in assay [6] (LRTMCS, [Inhibitor] 0.0167028 nM, read-out: percent inhibition) was determined as 1.88%. The IC50 was 0.064 ± 0.004 nM in [6] (setting [18]) and 0.051 to 0.064 nM in [6] (read-out: IC50, LRTMCS).
With `C=CC(=O)Nc1ccc(OC)c(Nc2cc(-c3[nH]c(CC)nc3-c3cccc(NC(=O)c4cccc5c4NC(=O)c4ccccc4N5)c3)ccn2)c1` [Compound 4], the POC is 83% of control in assay [7]; 100% of control in [8]; 85% of control in assay [9]; 6% of control in assay [10]; 100% of control in assay [11]; 100% of control in assay [12]. The POC was 90% of control in assay [13]; 81% of control in assay [14]; 100% of control in assay [15]; 100% of control in assay [16]; 73% of control in assay [17]. In addition, the “concentration suppressing LRTM phosphorylation (pY1068), pERK and pAKT” value in [1] (H1975, dosed for 6 h) is reported as “below 1 µM”. Also, the EC50 in assay [2] is 950 nM; in assay [3], 220 nM; in [4], more than 10000 nM; in assay [5], 770 nM. For the same compound, the half-inhibitory concentration (IC50) in assay [6] (setting [18]) amounted to 1.8 ± 0.3 nM. For the same compound, the “IC50 improvement over orthosteric-only 7, LRTMCS” value in assay [6] (reversible inhibition) is given as 100 fold.
